{"source": "ChEMBL document CHEMBL4725324", "about": "“In vitro and in vivo evaluation of the antimalarial MMV665831 and structural analogs” (Bioorg Med Chem Lett, 2020)", "key": {"[1]": {"system": "Plasmodium falciparum", "assay": "Antimalarial activity against Plasmodium falciparum 3D7 assessed as reduction in parasite growth incubated for 48 hrs", "format": "functional, organism-based", "conditions": "3D7, 48 h"}, "[2]": {"assay": "Stability in methanolic diethylamine at 40 degC measured after 2 days 1H-NMR analysis", "format": "physicochemical", "conditions": "48 h; time 2 day"}, "[3]": {"assay": "Stability in methanolic diethylamine at 40 degC measured after 2 days HRMS analysis", "format": "physicochemical", "conditions": "48 h; time 2 day"}, "[4]": {"assay": "Stability in D2O at 50 degC measured after 7 days HRMS analysis", "format": "physicochemical", "conditions": "168 h; time 7 day"}, "[5]": {"assay": "Stability in D2O at 90 degC measured after 1 day HRMS analysis", "format": "physicochemical", "conditions": "24 h"}, "[6]": {"assay": "Solubility of compound in D2O", "format": "physicochemical"}, "[7]": {"assay": "Solubility of compound in CDCl3", "format": "physicochemical"}, "[8]": {"assay": "Drug metabolism in 0.1 M DCl in D20 assessed as ethyl 2-benzamido-4-deuterio-6-(dimethylaminomethyl)-7-hydroxy-benzothiophene-3-carboxylate formation at 90 degC after 24 hrs"}, "[9]": {"system": "Plasmodium berghei", "assay": "Antimalarial activity against blood-stage Plasmodium berghei infected in mouse assessed as reduction in parasite growth at 40 mg/kg, po", "format": "functional, organism-based"}, "[10]": {"assay": "Stability in mouse plasma assessed as carboxylesterase-mediated reduction in parent compound incubated for over 120 mins", "format": "ADME, cell-free", "conditions": "2 h"}, "[11]": {"assay": "Stability in mouse hepatocytes assessed as half life", "format": "ADME, cell-based, Hepatocyte"}}, "note": "Calls of active or inactive are those of the source. No cut-off for these calls is given here.", "data": [{"compound": "CCOC(=O)c1c(NC(=O)c2ccccc2)sc2c(O)c(CCN(C)C)ccc12", "values": [{"measurement": "EC50", "setting": "[1]", "value": 182, "unit": "nM"}]}, {"compound": "CCOC(=O)c1c(NC(=O)c2ccccc2)sc2c(O)c(CN3CCCC3)ccc12", "values": [{"measurement": "EC50", "setting": "[1]", "value": 16, "unit": "nM"}]}, {"compound": "CCOC(=O)c1c(NC(=O)c2ccccc2)sc2c(OC)c(CN(CC)CC)ccc12", "values": [{"measurement": "EC50", "setting": "[1]", "value": "> 1000", "unit": "nM"}]}, {"compound": "CCOC(=O)c1c(NC(=O)c2ccccc2)sc2c(O)c(CN(C)C)ccc12.Cl", "values": [{"measurement": "EC50", "setting": "[1]", "value": 24, "unit": "nM"}, {"measurement": "Stabilty", "setting": "[2]", "value": "Stable"}, {"measurement": "Stabilty", "setting": "[3]", "value": "Stable"}, {"measurement": "Stabilty", "setting": "[4]", "value": "Stable"}, {"measurement": "Stabilty", "setting": "[5]", "value": "Unstable"}, {"measurement": "solubility", "setting": "[6]", "value": "Insoluble"}, {"measurement": "solubility", "setting": "[7]", "value": "Insoluble"}, {"measurement": "Drug metabolism", "setting": "[8]", "value": "Metabolite detected"}]}, {"compound": "CCCN(CCC)Cc1ccc2c(C(=O)OCC)c(NC(=O)c3ccccc3)sc2c1O", "values": [{"measurement": "EC50", "setting": "[1]", "value": 16, "unit": "nM"}]}, {"compound": "CCOC(=O)c1c(NC(=O)c2ccc(Cl)cc2)sc2c(O)c(CN(CC)CC)ccc12", "values": [{"measurement": "EC50", "setting": "[1]", "value": 70, "unit": "nM"}]}, {"compound": "CCOC(=O)c1c(NC(=O)c2ccccc2)sc2c(O)c(CN3CCOCC3)ccc12", "values": [{"measurement": "EC50", "setting": "[1]", "value": 100, "unit": "nM"}]}, {"compound": "CCOC(=O)c1c(NC(=O)c2ccccc2)sc2c(O)c(CNC34CC5CC(CC(C5)C3)C4)ccc12", "values": [{"measurement": "EC50", "setting": "[1]", "value": 388, "unit": "nM"}]}, {"compound": "CCN(CC)Cc1ccc2c(C(=O)OC)c(NC(=O)c3ccccc3)sc2c1O", "values": [{"measurement": "EC50", "setting": "[1]", "value": 53, "unit": "nM"}]}, {"compound": "O[C@@H](c1cc(C(F)(F)F)nc2c(C(F)(F)F)cccc12)[C@H]1CCCCN1", "note": "[(S,R)-MEFLOQUINE]", "values": [{"measurement": "EC50", "setting": "[1]", "value": 16, "unit": "nM"}]}, {"compound": "CCOC(=O)c1c(NC(=O)c2ccccc2)sc2c(O)c(CN3CCCCC3)ccc12", "values": [{"measurement": "EC50", "setting": "[1]", "value": 13, "unit": "nM"}]}, {"compound": "CCN(CC)Cc1ccc2c(C(=O)NC)c(NC(=O)c3ccccc3)sc2c1O", "values": [{"measurement": "EC50", "setting": "[1]", "value": "> 1000", "unit": "nM"}]}, {"compound": "CCOC(=O)c1c(NC(=O)c2ccc(OC)cc2)sc2c(O)c(CN(CC)CC)ccc12", "values": [{"measurement": "EC50", "setting": "[1]", "value": 66, "unit": "nM"}]}, {"compound": "CCOC(=O)c1c(NC(=O)c2ccccc2)sc2c(O)c(CN(CC)CC)ccc12", "values": [{"measurement": "EC50", "setting": "[1]", "value": 27, "unit": "nM"}, {"measurement": "Activity", "setting": "[9]", "value": "inactive"}, {"measurement": "Stabilty", "setting": "[10]", "value": "Stable"}, {"measurement": "t1/2", "setting": "[11]", "value": 11, "unit": "min"}]}]}
